One data set deals with T1, sGC protein (Homo sapiens, UniProt Q02108+Q02153).
T1 construct: LNCap is a human prostate cancer cell line that expresses sGC protein; host or cells: LNCap (human prostate cancer cell line)
T1 sequence (Q02108 1-690): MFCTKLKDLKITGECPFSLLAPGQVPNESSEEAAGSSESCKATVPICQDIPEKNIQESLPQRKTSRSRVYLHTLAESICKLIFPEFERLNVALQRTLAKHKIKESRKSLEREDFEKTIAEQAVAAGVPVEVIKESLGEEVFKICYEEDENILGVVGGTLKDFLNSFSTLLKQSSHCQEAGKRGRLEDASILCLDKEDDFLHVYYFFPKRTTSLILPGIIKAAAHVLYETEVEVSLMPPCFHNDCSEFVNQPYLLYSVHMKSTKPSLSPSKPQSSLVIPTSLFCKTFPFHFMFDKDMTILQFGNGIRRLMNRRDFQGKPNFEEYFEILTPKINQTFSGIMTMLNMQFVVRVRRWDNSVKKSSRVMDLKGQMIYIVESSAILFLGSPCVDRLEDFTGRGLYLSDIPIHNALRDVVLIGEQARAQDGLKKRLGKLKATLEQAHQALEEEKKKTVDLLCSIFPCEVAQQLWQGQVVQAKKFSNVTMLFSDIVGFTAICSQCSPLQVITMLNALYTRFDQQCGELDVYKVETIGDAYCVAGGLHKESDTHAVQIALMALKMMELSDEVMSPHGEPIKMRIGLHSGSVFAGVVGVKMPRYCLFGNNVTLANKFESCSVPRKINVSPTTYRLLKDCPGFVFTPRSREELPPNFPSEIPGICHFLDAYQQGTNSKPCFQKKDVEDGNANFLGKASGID
T1 sequence (Q02153 1-619): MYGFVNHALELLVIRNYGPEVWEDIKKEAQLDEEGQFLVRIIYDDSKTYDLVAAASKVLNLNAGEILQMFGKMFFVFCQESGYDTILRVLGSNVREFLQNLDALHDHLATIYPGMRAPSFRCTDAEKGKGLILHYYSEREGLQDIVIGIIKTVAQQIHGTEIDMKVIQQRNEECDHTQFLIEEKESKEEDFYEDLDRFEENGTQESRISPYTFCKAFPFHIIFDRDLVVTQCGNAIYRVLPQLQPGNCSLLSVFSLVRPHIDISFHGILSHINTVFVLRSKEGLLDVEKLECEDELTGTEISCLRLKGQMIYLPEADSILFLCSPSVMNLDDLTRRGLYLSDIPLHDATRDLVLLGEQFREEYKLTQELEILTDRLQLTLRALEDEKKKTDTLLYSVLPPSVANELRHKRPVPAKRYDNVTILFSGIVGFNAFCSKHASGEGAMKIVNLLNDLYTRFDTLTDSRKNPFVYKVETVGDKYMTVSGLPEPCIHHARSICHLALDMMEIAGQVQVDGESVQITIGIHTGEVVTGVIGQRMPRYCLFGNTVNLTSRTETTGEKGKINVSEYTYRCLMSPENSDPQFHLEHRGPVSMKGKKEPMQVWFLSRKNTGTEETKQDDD
The experiment in a line: cGMP detection experiment in LNCap cells. It is filed as cell-based. The conditions noted are these: cGMP production in LNCap cells; 20 µM DETA-NO pre-incubation; relative to compound A. As to the method: LNCap is a human prostate cancer cell line that expresses sGC protein. […] On the day of the detection, the cells were reselected in assay buffer (EBSS assay buffer+[…] of MgCl2+10 mM HEPES+0.05% BSA) at a density of 2 × 10^5/mL. 0.5 mM IBMX was added to prevent cGMP degradation.
The cells were pre-incubated with 20 µM diethylenetriamine/nitric oxide (DETA-NO) at 37°C for 30 minutes, and then different concentrations of the compounds were added. The mixture was further incubated at room temperature for 1 h. After the incubation was completed, the reaction was terminated, and intracellular cGMP levels were measured according to the instructions for the CisBio kit (Cisbio, 62GM2PEC).

Data set [1] is described as follows: Pharmacokinetic test in rats (inhalation administration). The conditions noted are these: for Lung AUC0-t / Lung Cmax / Lung AUC0-t/plasma AUC0-t: SD rats, single inhalation dose 0.03 mg/kg; for Lung AUC0-t / Lung Cmax: lung tissue.
Protocol: Experimental objective: In this experiment, the test compound was administered as a single dose via inhalation to SD rats, and the concentrations of the test compound in rat plasma and lungs were determined to evaluate the pharmacokinetic characteristics and bioavailability of the test compound in the rats.
Experimental animals: Male SD rats, 180-200 g, purchased from Chengdu Dossy Experimental Animals Co., Ltd.
Experimental method: On the day of the experiment, SD rats were randomly assigned into 6 groups according to body weight (for each compound), with 2 rats in each group. The rats were fasted with water available for 12 to 16 hours one day before the administration, and were fed 4 hours after the administration.
Plasma sampling: before and after the administration, blood was taken from the orbits of the rats under isoflurane anaesthesia, and placed in an EDTAK2 centrifuge tube. Centrifugation was performed at 6000 rpm at 4°C for 10 min, and the plasma was collected.
Lung tissue sampling: Animals from each group were euthanised by CO2 inhalation at 0.25, 0.5, 1, 4, 7 and 24 hours after the administration. Then, the animal was dissected to collect lung tissue, which was rinsed with physiological saline, dried with filter paper, weighed in the balance, kept on wet ice and homogenised within 2 hours using a 6-fold volume (i.e., 6 mL per 1 g of tissue) of homogenisation buffer (50% methanol-water).
Before analysis and detection, all samples were stored at -60°C. The samples were analysed quantitatively by LC-MS/MS.
For data set [2] the following is noted: AE frequency, riociguat group, cited from earlier work.
In data set [3] the target is T2, soluble guanylate cyclase (sGC) (Homo sapiens, UniProt Q02108+Q02153).
T2 sequence (Q02108 1-690): T1 sequence (Q02108 1-690)
T2 sequence (Q02153 1-619): T1 sequence (Q02153 1-619)
Put plainly: In vitro detection experiment for soluble guanylate cyclase (sGC) activity (TR-FRET).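 Also: enzyme reaction started with GTP and run for 60 min at 37°C, followed by a 60 min detection step at room temperature, with EC50 obtained by nonlinear curve fitting.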 For orientation: Time-resolved FRET reads energy transfer from a long-lived donor to a nearby acceptor.
Protocol: First, 100 nL of the compounds at different concentrations were transferred to a 384-well reaction plate (Greiner, Cat. No. 784075) using Echo 655 (LABCYTE, Cat # 655), with the final DMSO concentration of 1% in the reaction mixture; 2 µL of sGC (ICE, Cat. No. S2304F-H07SH2) was added to a 384-well reaction plate, and the mixture was centrifuged at 1000 rpm for 1 min; and then 1 µL of DETA NONOate was added, and the mixture was incubated at 37°C for10 min. After the incubation was completed, 2 µL of GTP was added, and the mixture was centrifuged at 1000 rpm for 1 min and reacted at 37°C for 60 min. In the reaction system, the final concentrations of sGC, GTP, and DETA NONOate were 1.5 nM, 5 µM, and 100 µM, respectively. After the reaction was completed, 5 µL of the test mixture (PerkinElmer, Cat. No. 62GM2PEG) was added and incubated at room temperature for 60 min. The TR-FRET signal (Ratio: 665/620 nm) was read using a microplate reader (BMG, Cat. No. PHERAstar FSX). A nonlinear regression curve was fitted using GraphPad Prism software, and EC50 values were calculated. Compound A (Example 1 in WO 2010065275) was used as a positive reference compound.

Setting [4] is: 12-week PATENT-1 study (placebo 2%).

Each structure is given as a SMILES string. Where only a bound is given, the exact number is not on record here.

As for `CC(C)(Cc1csc(C2(C)C(=O)Nc3nc(-n4nc(Cc5ccccc5F)c5ncc(F)cc54)nc(N)c32)n1)C(=O)O` (single isomer, unassigned) [Compound 35-1], the EC50 (in general, the midpoint of the concentration-response curve) at sGC protein was under 500 nM. Further, in data set [1], the “Lung AUC0-t” value amounted to 5432 ng·h/mL and the “Lung Cmax” value is recorded as 2545 ng/mL.
Molecule `CC(C)(Cc1csc(C2(C)C(=O)Nc3nc(-n4nc(CCC(F)(F)C(F)(F)F)c5cc(Cl)ccc54)nc(N)c32)n1)C(=O)O` (single isomer, unassigned) [Compound 4-1] showed an EC50 at sGC protein of under 500 nM. In data set [1], the “Lung AUC0-t/plasma AUC0-t” value was 77.1, the “Lung AUC0-t” value was found to be 2462 ng·h/mL and the “Lung Cmax” value is 2352 ng/mL.
In turn, `CC(C)(Cc1csc(C2(C)C(=O)Nc3nc(-n4nc(CCC(F)(F)C(F)(F)F)c5c(F)cccc54)nc(N)c32)n1)C(=O)O` (single isomer, unassigned) [Compound 43-1] registered an EC50 on sGC protein of under 500 nM.
Take `COC(=O)N(C)c1c(N)nc(-c2nn(Cc3ccccc3F)c3ncccc23)nc1N` [riociguat, Riociguat]: the constipation in data set [2] (12-week PATENT-1 study (placebo 1%)) was 5%. Besides, in data set [2] (setting [4]), the anaemia is given as 7% and the gastrooesophageal reflux disease was 5%. Further, the hypotension in data set [2] (12-week PATENT-1 study (placebo 4%)) was 10%. Moreover, the vomiting in data set [2] (12-week PATENT-1 study (placebo 7%)) is listed as 10%. Besides, the diarrhoea in data set [2] (12-week PATENT-1 study (placebo 8%)) was 12%. In data set [2] (12-week PATENT-1 study (placebo 13%)), the dizziness was 20%.
Regarding `CC(C)(Cc1csc([C@]2(C)C(=O)Nc3nc(-c4nc(Cc5ccccc5F)n5ncccc45)nc(N)c32)n1)C(=O)O` [Compound 19-1], in data set [1], the “Lung AUC0-t/plasma AUC0-t” value is recorded as 245, the “Lung AUC0-t” value is 12248 ng·h/mL and the “Lung Cmax” value was 2842 ng/mL.
For the molecule `CC(C)(Cc1csc(C2(C)C(=O)Nc3nc(-n4nc(Cc5ccccc5F)c5cc(Cl)ccc54)nc(N)c32)n1)C(=O)O` (single isomer, unassigned) [Compound 32-1], the EC50 at sGC protein was under 500 nM.
Consider `CC(C)(Cc1cccc([C@@]2(C)C(=O)Nc3nc(-c4nn(CCC(F)(F)C(F)(F)F)c5cc(Cl)cnc45)nc(N)c32)c1)C(=O)O` [Compound 6-1], for which, in data set [1], the “Lung AUC0-t/plasma AUC0-t” value is reported as 659, the “Lung AUC0-t” value was 5173 ng·h/mL and the “Lung Cmax” value is 2825 ng/mL.
On the same counts, the results for `CC(C)(Cc1csc(C2(C)C(=O)Nc3nc(-n4nc(Cc5cccc(F)c5F)c5ncc(F)cc54)nc(N)c32)n1)C(=O)O` (single isomer, unassigned) [Compound 36-1] are 49.1, 10133 ng·h/mL and 4067 ng/mL.
Molecule `CC(C)(Cc1csc([C@]2(C)C(=O)Nc3nc(-n4c(=O)n(CCC(F)(F)C(F)(F)F)c5cc(F)ccc54)nc(N)c32)n1)C(=O)O` [Compound 31-1] showed an EC50 at sGC protein of under 500 nM. In data set [1], the “Lung AUC0-t/plasma AUC0-t” value is given as 97.9, the “Lung AUC0-t” value is 608 ng·h/mL and the “Lung Cmax” value was 1183 ng/mL.
The molecule `CC(C)(Cc1csc([C@]2(C)C(=O)Nc3nc(-n4nc(CCC(F)(F)C(F)(F)F)c5cc(F)ccc54)nc(N)c32)n1)C(=O)O` [Compound 17-1] gave an EC50 on sGC protein of under 500 nM. Moreover, in data set [1], the “Lung AUC0-t/plasma AUC0-t” value stood at 48.4, the “Lung AUC0-t” value was 2021 ng·h/mL and the “Lung Cmax” value amounted to 1754 ng/mL.
`CC(C)(Cc1csc([C@]2(C)C(=O)Nc3nc(-c4nn(CCC(F)(F)C(F)(F)F)c5ncccc45)nc(N)c32)n1)C(=O)O` [Control compound 1, reference compound] gave an EC50 on sGC protein of 3220 nM. Moreover, in data set [1], the “Lung AUC0-t” value stood at 220 ng·h/mL and the “Lung Cmax” value came to 273 ng/mL. Also, the Kp (in general, tissue or fluid exposure divided by exposure in the circulation) in data set [1] (male, SD, rat, lung and plasma, inhaled or intranasal, 0.03 mg/kg) worked out at 29.1.
For `CC(C)(Cc1coc(C2(C)C(=O)Nc3nc(-n4c(=O)n(CC5CCCCC5)c5c(F)cccc54)nc(N)c32)n1)C(=O)O` (centres unmarked) [Trifluoroacetate of compound 27], the EC50 at sGC protein was under 500 nM; in data set [3], under 20 nM.
For `CC(C)(Cc1csc([C@]2(C)C(=O)Nc3nc(-n4c(=O)n(Cc5ccccc5F)c5cc(F)ccc54)nc(N)c32)n1)C(=O)O` [Compound 38-1], in data set [1], the “Lung AUC0-t/plasma AUC0-t” value came out at 83.6 and the “Lung Cmax” value is on record as 1743 ng/mL.
Molecule `CC(C)(Cc1csc(C2(C)C(=O)Nc3nc(-n4nc(Cc5ccccc5F)c5c(F)cccc54)nc(N)c32)n1)C(=O)O` (single isomer, unassigned) [Compound 41-1] had an EC50 at sGC protein of under 500 nM.
`CC(C)(Cc1csc([C@]2(C)C(=O)Nc3nc(-n4c(=O)n(CCC(F)(F)C(F)(F)F)c5c(F)cccc54)nc(N)c32)n1)C(=O)O` [Compound 14-1] came in with an EC50 on sGC protein of under 500 nM.
Still for that read-out and setting: the figure for `CC(C)(Cc1csc(C2(C)C(=O)Nc3nc(-n4c(=O)n(Cc5ccccc5F)c5c(F)cccc54)nc(N)c32)n1)C(=O)O` (single isomer, unassigned) [Compound 15-1] is under 500 nM.

These data come from patent publication EP4725948A1, “PYRROLO[2,3-D]PYRIMIDIN-4-AMINE DERIVATIVE AND USE THEREOF IN MEDICINE” (Haisco Pharmaceutical Group Co., Ltd., priority 2023, dated 2024).
